Measurements from patent US20050048596A1, “Assay for detecting changes in mitochondrial membrane permeability and method of using same” (priority 2003, published 2005).

Columns and labels:
MPT pore [1] = assay: Enzymatic assay (ADH/NADH oxidase/HRP/Amplex Red) of calcium-induced pyridine nucleotide release from isolated liver mitochondria, Resorufin fluorescence; format: biochemical, rat; settings: BA 20 μM; calcium 100 μM; isolated liver mitochondria 0.125 mg/ml protein; FIG. 5
Description: FIG. 5 illustrates the recording of fluorescence intensity following calcium additions to isolated liver mitochondria in the assay mixture. Controls; only calcium (100 μM) was added. BA; the same amount of calcium (100 μM) was added to mitochondria incubated in the presence of 20 μM Bongrekig acid.
In one preferred embodiment, the assay for pyridine nucleotides measurement may comprise several enzymatic reactions—cyclic and/or coupled—which use oxidized or reduced form of nicotinamide adenine dinucleotides (NAD^+, NADH, respectively) as substrate, thereby providing a detectable final product (FIG. 1). In the first step shown in FIG. 1, alcohol dehydrogenase (ADH) converts ethanol to acetaldehyde in the presence of NAD^+, which is released from mitochondria and reduced to NADH. In the next reaction NADH oxidase (Ox) oxidizes NADH back to NAD^+, and hydrogen peroxide (H2O2) is produced from water in the process. In the last reaction, horseradish peroxidase (HRP) produces a detectable signal in the presence of hydrogen peroxide. […]
Experiments with isolated liver mitochondria were carried out in the same medium as those without; however, no substrate was added, since respiring mitochondria produce superoxide (O2^−). […] Leakage of H2O2 into the medium is expected to give a increase in fluorescence intensity which is not due to the release of pyridine nucleotides from mitochondria. […]

MPT pore [2] = assay: Calcium-induced swelling of isolated liver mitochondria, light scattering at 540 nm; format: biochemical, rat; settings: BA 20 μM; calcium 100 μM; no enzymes in medium; FIG. 6
Description: FIG. 6 illustrates calcium-induced swelling of mitochondria isolated from whole liver. The swelling is detected by recording the light scattering of mitochondrial suspension at 540 nm. Experimental conditions are the same as described in FIG. 5, except no enzymes were present in the medium.
The opening of the MPT pore leads to osmotic swelling of mitochondria, which can be detected as decreased light scattering. […] However, a more significant and progressive decrease in light scattering starting at about 300 sec. following the initial calcium pulse occurred.
Male Wistar rats weighing about 300 g were used for isolation of rat liver mitochondria. For examination of calcium-induced release of NAD^+, 0.125 mg/ml of mitochondrial protein were used. The mitochondria were incubated in 2ml of the reaction buffer containing all compounds required for the assay.

SMILES: CO[C@H](C/C=C\C=C\CC/C=C/C[C@H](C)/C=C/C(=C\C(=O)O)CC(=O)O)/C(C)=C\C=C(/C)C(=O)O [BA, Bongkrekic acid]
- increase in fluorescence following calcium addition (release of pyridine nucleotides) (MPT pore [1]): blocked
- calcium-induced swelling of mitochondria (decrease in light scattering at 540 nm) (MPT pore [2]): inhibited
